Experimental data taken from patent US8614333B2, “Acenaphtho heterocyclic compound and application thereof” (Dalian University of Technology, priority 2010, dated 2013).

How the values were obtained:
Bcl-2 protein = Bcl-2 protein (Homo sapiens, UniProt P10415); test: ELISA assay, competitive binding to Bcl-2 protein (biotin-Bim/streptavidin plate); conditions: method calculates average IC50, read-out: Bcl-2 binding constants
Experimental: (§1) The present inventors used fluorescence polarization assay to detect the bonding force between the protein and the compounds in a previous study (PCT/CN2010/075521). […] ELISA assay was used to detect the bonding force between the compounds and the protein in this application.
(§2) Biotinylated Bim peptide was diluted to 0.09 μg/mL in SuperBlock blocking buffer in PBS and incubated for 1.5 h in 96-well microtiter plates already coated with streptavidin to allow the formation of the complex between Biotin-Bim and streptavidin. All incubations were performed at room temperature unless otherwise noted. Each inhibitor was first dissolved in pure DMSO to obtain a 10 mM stock solution. For each tested inhibitor, different concentrations of the inhibitor were incubated with 20 nM His-tagged Mcl-1 protein in PBS for 1 h with a final DMSO concentration of 4%. The plates were washed three times with PBS containing 0.05% Tween-20. The inhibitor and protein mixture (100 μL) were transferred to the plate containing the biotin-Bim/streptavidin complex and incubated for 2 h. The plate was then washed as before and mouse anti-His antibody that conjugated with horseradish peroxidase was added into the wells and incubated for 1 h. The plate was then washed with PBS containing 0.05% Tween-20. Finally, TMB was added to each well; the enzymatic reaction was stopped after 30 min by addition of H2SO4 (100 μL, 2M). Absorbances were measured with a TECAN GENios (Swiss, TECAN) microplate reader using a wavelength of 450 nm. Three independent experiments were performed with each inhibitor to calculate average IC50 value and standard deviation (SD).
(§3) The BH3 analogous degrees of other 11 compounds were detected by using the experimental method as described above. The protein binding constant (binding constant in table 1) between them and Bcl-2 and Mcl-1 proteins were also on nM grade.

[1] = tested on: MCF-7 cells transfected with BAX/BAK interfering plasmid; test: Cytotoxicity by MTT, cells transfected with BAX/BAK interfering plasmid; format: cell-based; conditions: Homo sapiens, MCF7; MCF-7 with BAX/BAK interfering plasmid, MTT, 48 hours
Experimental: (§4) 3 μg of BAX/BAK interfering plasmid was transfected into MCF-7 cells by using calcium phosphate coprecipitation method, 24 hours later, the cells were collected. The expressions after the BAX and BAK proteins interfered with RNA was detected by Western, and the cell groups without plasmid transfection were treated similarly and were set as the control group. The transfected cells were inoculated in a 96-well plate (1×10^5 cells/well), the control experiment of the cell group without plasmid transfection was carried out in parallel. The compound 1 to be detected was added thereinto according to the concentration gradient designed before the experiment. 48 hours later, the cellular vitality was detected by MTT. The experimental results were shown in FIG. 9, Gossypol as nonspecific BH3 analogue was treated in parallel.
(§5) Other 24 compounds were also detected by the same experimental method as described above, the differences of IC50 values between the transfected cells and the without plasmid transfection cells were compared.

His-tagged Mcl-1 protein = His-tagged Mcl-1 protein (Homo sapiens, UniProt Q07820); test: ELISA assay, competitive binding to Mcl-1 protein (biotin-Bim/streptavidin plate); conditions: 20 nM His-tagged Mcl-1, method calculates average IC50, read-out: Mcl-1 binding constants
His-tagged Mcl-1 protein, sequence (Q07820 whole entry): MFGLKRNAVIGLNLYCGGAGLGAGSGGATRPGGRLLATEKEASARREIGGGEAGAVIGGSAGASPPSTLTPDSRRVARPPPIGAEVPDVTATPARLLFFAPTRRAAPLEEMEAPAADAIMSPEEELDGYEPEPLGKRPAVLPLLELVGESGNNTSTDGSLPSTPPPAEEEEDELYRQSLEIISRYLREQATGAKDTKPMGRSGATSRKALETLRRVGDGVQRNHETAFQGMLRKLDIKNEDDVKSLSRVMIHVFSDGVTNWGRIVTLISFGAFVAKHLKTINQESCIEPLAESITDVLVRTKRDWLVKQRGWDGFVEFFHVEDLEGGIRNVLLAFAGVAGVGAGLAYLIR
Experimental: as §1, §2, §3

[2] = target: T1, interaction between Bcl-2 and Bax (Homo sapiens, UniProt P10415); test: Intracellular FRET, Bcl-2-CFP/Bax-YFP in Hela cells; format: cell-based; conditions: for Time (time period after which the interaction between Bcl-2 and Bax was interfered): at the concentration given
T1 construct: expressed in transfected cells; host or cells: Hela cells
T1 sequence (P10415 whole entry): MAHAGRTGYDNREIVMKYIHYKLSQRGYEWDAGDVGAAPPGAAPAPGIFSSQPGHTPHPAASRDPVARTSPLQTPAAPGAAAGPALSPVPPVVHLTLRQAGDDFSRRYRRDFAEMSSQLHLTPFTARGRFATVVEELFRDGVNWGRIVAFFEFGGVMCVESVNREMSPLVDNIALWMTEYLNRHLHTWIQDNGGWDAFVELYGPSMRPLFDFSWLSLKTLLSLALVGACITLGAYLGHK
Experimental: 2 μg of Bcl-2-CFP and Bax-YFP plasmids were transfected separately or simultaneously into Hela cells by using calcium phosphate coprecipitation method, 24 hours later, the cells were inoculated in a 6-well plate (2×10^5 cells/well), and the compound 1 to be detected dissolved in DMSO was added there into until the final concentration (2, 5, 10 and 15 μM) was achieved. 24 hours later (please refer to FIG. 5); the cells were washed with PBS for three times. The fluorescence value was detected by GENIOS fluorescence enzyme-labelled meter (TECAN, Swiss). In time-dependent experiment, the transfected cells were inoculated in a 6-well plate, after that, 40 μM of the compound was added thereinto. 3, 6 and 24 hours later (FIG. 6), the fluorescence intensities were detected by plate reader. As for the cell group in which only Bcl-2-CFP plasmid was transfected, the values at 475 nm emission wave length and 433 nm excitation wave length were recorded. As for the cell group in which only Bax-YFP plasmid was transfected, the values at 527 nm emission wave length and 505 nm excitation wave length were recorded. As for the cell group in which Bcl-2-CFP and Bax-YFP plasmids were co-transfected, the values at 527 nm and 475 emission wave lengths and 433 nm excitation wave length were recorded. The ratio of fluorescence intensity at 527 nm and 475 nm emission wave lengths was FRET. The FRET for the control group in which the plasmid was solely transfected was set as 1.0. […] In the cotransfected cells, the FRET increased up to 2.0 due to the interaction of Bcl-2 protein and Bax protein, and that the interference to the interaction between the two proteins increased and FRET decreased with the increase of the drug concentration and time. The cellular vitality was detected by MTT method. When the concentration of the compound reached 1 μM, the interaction between Bcl-2 and Bax can be interfered after 2 hours, and the results appeared concentration-time dependent trend.
Wherein the concentration and time meant that the detected compound interfered with the interaction between Bcl-2 and Bax at the concentration for the time period.

Bcl-2 = test: Western blotting, semiquantitative analysis of Bcl-2 protein bands; format: cell-based; conditions: control = 1, tumor cells
Experimental: (§6) The interest protein was detected by the corresponding antibody. The expression of the interest protein in the cells was detected by horseradish peroxidase-labeled secondary antibodies in combination with ECL coloration method. […] The concentration of the protein bands in the Western images were carried out semiquantitative analysis and normalization treatment with KODAK Gel Logic 1500 imaging system software.

Mcl-1 = test: Western blotting, semiquantitative analysis of Mcl-1 protein bands; format: cell-based; conditions: control = 1, tumor cells
Experimental: as §6

MCF-7 cells = test: Cytotoxicity by MTT, cells without plasmid transfection; format: cell-based; conditions: Homo sapiens, MCF7; MCF-7, MTT, 48 hours; read-out: IC50 value in untransfected cells
Experimental: as §4, §5

[3] = tested on: BAX shift towards the chondriosome; test: Co-localization between Bax protein and chondriosome, Bax-YFP in MCF-7 cells; format: cell-based; conditions: for Doses (concentration at which the compound drove the BAX to shift towards the chondriosome): Bax-YFP/Mito Tracker Red; for Time (time period after which BAX shifted towards the chondriosome): at the concentration given
Experimental: 5 μg of Bax-YFP plasmid was transfected into MCF-7 cells by using calcium phosphate coprecipitation method, 24 hours later, the cells were inoculated in a 6-well plate (0.2×10^6 cells/well), and 10 μM of the compound 1 to be detected was added thereinto. 6 hours later, the cells were washed with PBS and hatched away from light with 50 nM Mito Tracker Red CMXRos (chondriosome specific probes; red) for 10 minutes. Then the cells were washed with PBS for three times, and the fluorescent image was scanned with Radiance2000 laser confocal microscopy (Bio-Rad, USA). Meanwhile, dual channel scanning was carried out, one channel was used to scan the green fluorescence of Bax-YFP, and the other channel was used to scan the red fluorescence of the CMXRos probe for indicating the chondriosome. […] When the Bax protein was localized on the chondriosome, the green and red fluorescence was superimposed into orange, as shown in FIG. 7.
Other 24 compounds were detected by the same experimental method as described above. […] Wherein the concentration and time meant that the detected compound simulated the BH3-only protein and driven the BAX to shift towards the chondriosome at the concentration for the time period.

Bcl-2 protein, sequence (P10415 whole entry, species assumed): as the sequence (P10415 whole entry) above

SMILES	IC50 (Bcl-2 protein)	IC50 [1]	IC50 (His-tagged Mcl-1 protein)	Doses (concentration at which the compound interfered with the interaction between Bcl-2 and Bax) [2]	Time (time period after which the interaction between Bcl-2 and Bax was interfered) [2]	concentration of the protein bands (semiquantitative, normalized), Bcl-2 (Bcl-2; 6 h)	concentration of the protein bands (semiquantitative, normalized), Bcl-2 (Bcl-2; 12 h)	concentration of the protein bands (semiquantitative, normalized), Bcl-2 (Bcl-2; 18 h)	concentration of the protein bands (semiquantitative, normalized), Bcl-2 (Bcl-2; 24 h)	concentration of the protein bands (semiquantitative, normalized), Mcl-1 (Mcl-1; 2 h)	concentration of the protein bands (semiquantitative, normalized), Mcl-1 (Mcl-1; 6 h)	IC50 (MCF-7 cells)	Doses (concentration at which the compound drove the BAX to shift towards the chondriosome) [3]	Time (time period after which BAX shifted towards the chondriosome) [3]	melting point
CCCCNC1=C2C(=NC1=O)c1cccc3c(Sc4ccc(Br)cc4)ccc2c13 [Compound 7, 3-(4-Bromo-phenylsulfanyl)-9-butylamino-acenaphtho[1,2-b]pyrrol-8-one]	66 nM	> 50000 nM	14 nM	0.3 µM	3 h	0.99	0.99	0.51	0.20	0.68	0.32	1200 nM	0.5 µM	3 h	245 to 246 °C
CCCCNC1=C2C(=NC1=O)c1cccc3c(Oc4ccc(C(C)C)cc4)ccc2c13 [Compound 11, 9-Butylamino-3-(4-isopropyl-phenoxy)-acenaphtho[1,2-b]pyrrol-8-one]	112 nM	> 50000 nM	46 nM	0.3 µM	2 h	0.99	0.99	0.57	0.22	0.70	0.34	4200 nM	0.9 µM	3 h	243 to 244 °C
O=C1N=C2C(=C1NCCCc1ccccc1)c1ccc(N3CCSCC3)c3cccc2c13 [Compound 10, 9-(3-Phenyl-propylamino)-3-thiomorpholin-4-yl-acenaphtho[1,2-b]pyrrol-8-one]	17 nM	> 50000 nM	5 nM	0.1 µM	2 h	0.99	0.99	0.45	0.12	0.53	0.21	500 nM	0.2 µM	1 h	265 to 266 °C
O=C1N=C2C(=C1NCCCc1ccccc1)c1ccc(Sc3ccc(Br)cc3)c3cccc2c13 [Compound 8, 3-(4-Bromo-phenylsulfanyl)-9-(3-phenyl-propylamino)-acenaphtho[1,2-b]pyrrol-8-one]	6 nM	> 50000 nM	4 nM	0.1 µM	1 h	0.99	0.99	0.42	0.10	0.52	0.22	1000 nM	0.1 µM	1 h	272 to 273 °C
CC(C)c1ccc(Oc2ccc3c4c(cccc24)C2=NC(=O)C(NCCCc4ccccc4)=C23)cc1 [Compound 12, 3-(4-Isopropyl-phenoxy)-9-(3-phenyl-propylamino)-acenaphtho[1,2-b]pyrrol-8-one]	9 nM	> 50000 nM	15 nM	0.2 µM	1 h	0.99	0.99	0.45	0.16	0.66	0.28	2900 nM	0.3 µM	2 h	275 to 276 °C
